Measured values reported in patent US20120309716A1, “Motor Function Improver” (Kao Corporation, priority 2010, published 2012).

What was measured:
[1] = system: PGC-1α; assay: Expression of gastrocnemius muscle mitochondrial function-related gene (quantitative PCR); format: in vivo; conditions: mouse gastrocnemius muscle after 13 weeks of rearing, 0.25% sphingomyelin test feed; control group 1.17 ± 0.10; p < 0.05
Excerpt: (§1) After that, the mice were fed with a control feed (10% lipid, 20% casein, 55.5% potato starch, 8.1% cellulose, 0.2% methionine, 2.2% vitamin (product name: Vitamin mix AIN-76, Oriental Bioservice, Inc.), and 4% mineral (product name: Mineral mix AIN-76, Oriental Bioservice, Inc.)) or a test feed containing the sphingomyelin (10% lipid, 20% casein, […], 8.1% cellulose, 0.2% methionine, 2.2% vitamin, 4% mineral, and 0.25% sphingomyelin) each for nine weeks, and a respiratory gas analysis was carried out at the tenth week.
After 13 weeks of rearing, the gastrocnemius muscle of a mouse of each group was collected, and RNA samples were obtained using RNeasy Fibrous Tissue Mini Kit (Qiagen). Each RNA sample was quantified, and a reverse transcription reaction was carried out in a reaction solution (1×PCR buffer II (Applied Biosystems), 5 mM MgCl2, 1 mM dNTP mix, 2.5 μM Oligo d [T]18 (New England Biolabs) and 1 U/ml RNase inhibitor (TAKARA BIO INC.) for 125 ng of RNA per reaction, to thereby obtain cDNA. The reaction was carried out under conditions of 42° C. and 10 min, 52° C. and 30 min, and 99° C. and 5 min.
Quantitative PCR was carried out using the thus obtained cDNA as a template by ABI PRISM 7700 Sequence Detector (Applied Biosystems) The results were corrected based on the expression amount of 36B4 mRNA and represented as relative mRNA expression amounts. […]

[2] = system: isolated soleus muscle; assay: Suppression of muscle strength deterioration after tail suspension treatment (isolated soleus muscle); format: in vivo, mouse; conditions: mice, 0.25% sphingomyelin diet for two weeks, then seven days of tail suspension; SPM group vs Cont group
Excerpt: After preliminary rearing for one week, BALB/c male mice (nine-week old) were classified into three groups (a Normal group, a Cont group, and an SPM group) based on their weights (n=8 in each group). After grouping, the mice of the Normal group and the Cont group were fed with a control feed (10% lipid, 20% casein, 55.5% potato starch, 8.1% cellulose, 0.2% methionine, 2.2% vitamin, and 4% mineral), and the mice of the SPM group were fed with a test feed containing the sphingomyelin prepared in Production Example 1 (10% lipid, 20% casein, 55.25% potato starch, 8.1% cellulose, 0.2% methionine, 2.2% vitamin, 4% mineral, and 0.25% sphingomyelin) each for two weeks. The mice were fed with the test feed for two weeks, and the mice of the Cont group and the SPM group were subject to a tail suspension treatment to exclude a gravity load on their hindlimb muscles (such as soleus muscle). […] The mice of the Normal group were not subjected to the tail suspension treatment. After seven days of the tail suspension treatment, the mice were subjected to anatomy, and muscle strength of the isolated soleus muscle was measured. The muscle strength of the isolated muscle was measured in the same way as in Test Example 1.

[3] = system: mice; assay: Swimming endurance (limit swimming time in flowing water pool); format: in vivo, mouse; conditions: 0.25% sphingomyelin diet and exercise, five weeks after beginning of administration, flow rate 7 L/min
Excerpt: (§2) After preliminary rearing for one week, nine-week old BALE/c male mice (Charles River Laboratories Japan Inc.) were classified into three groups (a Cont group, an Ex group, and an SPM group) (eight mice in each group) such that each group had the same body weight and swimming endurance (determined by measuring a limit swimming time by using a flowing water pool for mice (Kyodai Matsumoto type flowing water tank for measuring an amount of exercise: length×width×depth=90×45×45 cm, water depth: 38 cm, water temperature: 34° C. (Matsumoto, J Appl Physiol. 81: 1843-1849, 1996)) by the below-mentioned method).
After grouping, the mice of the Cont group and the Ex group were fed with a control feed (10% lipid, 20% casein, 55.5% potato starch, 8.1% cellulose, 0.2% methionine, 2.2% vitamin (product name: Vitamin mix AIN-76, Oriental Bioservice, Inc.), and 4% mineral (product name: Mineral mix AIN-76, Oriental Bioservice, Inc.)), and the mice of the SPM group were fed with a test feed containing the sphingomyelin prepared in Production Example 1 (10% lipid, 20% casein, 55.25% potato starch, 8.1% cellulose, 0.2% methionine, 2.2% vitamin, 4% mineral, and 0.25% sphingomyelin) each for 13 weeks.
During the feeding period, the limit swimming time was measured for the mice of the Ex group and the SPM group using the flowing water pool for mice once a week. […]

[4] = system: mice; assay: Respiratory gas analysis (energy consumption and lipid combustion); format: in vivo, mouse; conditions: average in 24 hours after nine weeks of rearing, 0.25% sphingomyelin test feed
Excerpt: After preliminary rearing for one week, nine-week old BALB/c mice (male: Oriental Bioservice, Inc.) were classified into two groups (eight mice in each group) such that each group had the same body weight.
as §1
The mice were transferred to a chamber for respiratory gas analysis and habituated to the environment for 48 hours, and oxygen consumption level and respiratory quotient of each mouse were measured over 24 hours using Arco-2000 system (ARCOSYSTEM Inc.). […] From the oxygen consumption level and respiratory quotient, the lipid combustion level was calculated by an equation of Peronnet (Peronnet F, and Massicotte D (1991) Can J Sport Sci 16:23-29.).

[5] = system: isolated soleus muscle and extensor digitorum longus muscle; assay: Muscle strength of isolated soleus and extensor digitorum longus muscle after 13 weeks of rearing with exercise; format: in vivo, mouse; conditions: mice, 0.25% sphingomyelin diet and exercise, electrical stimulation 40 Hz, 330 ms, 10V
Excerpt: as §2, with “method). […] After 13 weeks of rearing, the mice were subjected to anatomy, muscle strength of isolated soleus muscle and extensor digitorum longus muscle was measured. Muscle strength of the isolated muscle was measured according to a method by Cannon et al. (Biomed Sci Instrum, 2005). […] Electrical stimulation of 40 Hz, 330 ms, and 10V was applied by using two platinum electrodes, and a signal obtained from the transducer was determined as muscle strength (g/mg muscle).” for “method).”

sphingomyelin
PGC-1α relative mRNA expression amount (corrected based on 36B4 mRNA) [1]: 1.50 ± 0.15
muscle strength of the isolated soleus muscle [2]: significantly higher value
swimming endurance (limit swimming time) [3]: significant improvement in endurance
Lipid combustion level ([4]; calculated by equation of Peronnet, control group 5.4 ± 0.7, p < 0.05): 7.5 ± 0.7 mg/kg/min
Oxygen consumption level ([4]; control group 55.0 ± 1.0, p < 0.05): 58.2 ± 0.8 mL/min/kg
muscle strength of the extensor digitorum longus muscle [5]: significantly higher values
muscle strength of the soleus muscle [5]: significantly higher values
